According to publication PMC9138545, “Incorporation of Oxidized Phenylalanine Derivatives into Insulin Signaling Relevant Proteins May Link Oxidative Stress to Signaling Conditions Underlying Chronic Insulin Resistance” (Biomedicines, 2022):

Legend:
3T3-L1 adipocytes = assay: Isotope glucose uptake (deoxy-D-glucose 2-[1 2-3H(N)]) in differentiated 3T3-L1 adipocytes; format: cell-based, mouse; settings: for insulin-induced glucose uptake, time dependence: 200 nmol/L insulin, cells grown 1, 2, 3, 4, 5 or 12 days with p-, n = 5–8; for insulin-induced glucose uptake, time dependence / insulin-induced glucose uptake, 5 mmol/L glucose: m- or o-Tyr; for insulin-induced glucose uptake, 5 mmol/L glucose: 2, 20, 200, 400 nmol/L insulin, medium with p-; for non-stimulated (basal) glucose uptake: no insulin, cells grown 1-12 days with m- or o-Tyr, vs. p-Tyr control
Protocol: (§1) Early passages of mouse embryo fibroblast (3T3-L1) (ATCC, Manassas, VA, US) were cultured in Dulbecco’s modified Eagle medium (DMEM, Sigma Aldrich, Budapest, Hungary, CAT number: D6046; Invitrogen, Waltham, MA, USA, CAT number: 41966-029) supplemented with 100 U/mL penicillin, 0.1 mg/mL streptomycin (Gibco, Budapest, Hungary, CAT number: 15070-063) and 10% heat-inactivated Fetal Bovine Serum (FBS, Gibco, CAT number: 16170-078), supplemented with 398 nM p-, m-, or o-Tyr (equimolar to the original p-Tyr content of the medium) purchased from Sigma (CAT number: para-Tyr: T8566, m-Tyr: T3629, o-Tyr: 93851). Media contained 25 or 5 mmol/L glucose (experiment dependent) pyruvate and L-glutamine. Cells were grown at 37 °C and 5% CO2. Adipocyte differentiation was achieved by DMEM supplemented with 10% FBS (Gibco, Csertex, Budapest, Hungary, CAT number: 10106-169) (FBS) and a […] insulin (Sigma Aldrich, Budapest, Hungary, CAT number: I 9278), […] isobuthylmethylxanthine (Sigma Aldrich, Budapest, Hungary, CAT number: I 5879), and 250 nmol/L dexamethasone (Sigma Aldrich, Budapest, Hungary, CAT number: 861871) containing cocktail. From day 4 onward, cultures were maintained in DMEM containing 1.5 μg/mL insulin and 10% FBS with a medium change every other day until experimental treatments were started. After 90% of the cell population reached the adipocyte phenotype, prior to all treatments, cells were incubated overnight in serum-deprived medium. Experimental treatment was performed in serum-deprived medium containing 200 or 400 nmol/L insulin, for 5 min.
Initially, cells were kept in glucose-free DMEM (Gibco, Csertex, Budapest, Hungary) for 30 min and then were treated with 2, 20, 200, or 400 nmol/L insulin for 100 min. Concurrently, 1 μCi/mL deoxy-D-glucose 2-[1 2-3H(N)] (3.7 × 104 Bq/mL) (Izotóp Intézet, Budapest, Hungary) was added to the plates for 100 min. After scraping the cells into the medium, they were centrifuged for 5 min at 1000 rpm. We dissolved the sediment in 70 μL of lysis buffer, then glucose uptake was determined by scintillation counting by measuring 30 μL of the sample, using a Beckman LS 5000 TD counter, in counts per minute (CPM), for five minutes each, with average activity was used as the outcome. Following freezing overnight at −70 °C, protein concentration was measured with a Hitachi spectrophotometer. Results were normalized for protein content.

total proteins of cells = assay: HPLC of protein-bound tyrosines (incorporation into cellular proteins); format: cell-based; settings: cells grown on o-Tyr or m-Tyr; n = 5–10
Protocol: as §1
The conditionally immortalized human podocyte cell line (provided by Moin Saleem, University of Bristol, UK) was cultured in RPMI1640 medium (R8756, Sigma Aldrich, Budapest, Hungary) supplemented with 10% heat-inactivated FBS (16170-078, Gibco, Budapest, Hungary), insulin-transferrin-selenium supplement (41400-045, Gibco), 100 U/mL penicillin, 0.1 mg/mL streptomycin (P4333, Sigma), and […] (equimolar to the original p-Tyr content of the medium) para-, meta-, or ortho-Tyr. The cells were grown at 33 °C 5% CO2, and when they reached 40–60% confluency they were transferred to 37 °C to differentiate. Following the thermoswitching, cells were kept on RPMI1640 medium containing 2% FBS, antibiotics, and different tyrosines. Before every treatment, cells were incubated in serum-deprived medium overnight. […]
The total protein-bound cellular tyrosine content was measured by adding 200 μL of distilled water to the samples, followed by freezing overnight at −70 °C to achieve cell lysis. […]

N[C@@H](Cc1cccc(O)c1)C(=O)O [m-Tyr, meta-tyrosine]
insulin-induced glucose uptake, time dependence (3T3-L1 adipocytes): no significant effect | insulin-induced glucose uptake, 5 mmol/L glucose (3T3-L1 adipocytes): failed to induce the glucose uptake | non-stimulated (basal) glucose uptake (3T3-L1 adipocytes): lower than that of the p-Tyr control | protein-bound o-Tyr/p-Tyr and m-Tyr/p-Tyr ratio (total proteins of cells): increased | protein-bound p-Tyr/Phe ratio (total proteins of cells): either a decrease or remained unchanged

NC(Cc1ccccc1O)C(=O)O (stereo not shown) [o-Tyr, ortho-tyrosine]
insulin-induced glucose uptake, time dependence (3T3-L1 adipocytes): no significant effect | insulin-induced glucose uptake, 5 mmol/L glucose (3T3-L1 adipocytes): failed to induce the glucose uptake | non-stimulated (basal) glucose uptake (3T3-L1 adipocytes): lower than that of the p-Tyr control | protein-bound o-Tyr/p-Tyr and m-Tyr/p-Tyr ratio (total proteins of cells): increased | protein-bound p-Tyr/Phe ratio (total proteins of cells): either a decrease or remained unchanged
